Measurements taken from patent US8901315B2, “Thienopyrazole derivative having PDE7 inhibitory activity” (Daiichi Sankyo Company, Limited, priority 2004, dated 2014).
Structures can show the parent of a compound that is named as a salt.

What was measured:
[1] = target: PDE 7 (phosphodiesterase VII) (Homo sapiens (Human), UniProt Q13946); assay: PDE 7 inhibiting effect (3H-cAMP hydrolysis, PDE 7 active fraction from MOLT-4 cells); type: biochemical; conditions: PDE 7 fraction from MOLT-4 cells, 0.064 μM cAMP, 10 μM rolipram, 2 hours at 25° C.; read-out: PDE7 IC50
How it was run: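 PDE7 taken from the soluble fraction of human MOLT-4 T cells (homogenised in pH 7.5 Tris buffer, 100,000×G spin), partially purified on HiTrap Q with a 0–0.8 M NaCl gradient. Inhibition measured as ³H-cAMP hydrolysis, with product separated using Sephadex-QAE in 10 mM HEPES-Na pH 7.0.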

[2] = target: PDE 4 (phosphodiesterase IV); assay: PDE 4 inhibiting effect (3H-cAMP hydrolysis, PDE 4 active fraction from Balb/c mouse liver); type: biochemical; conditions: PDE 4 fraction from Balb/c mice liver, 0.064 μM cAMP, 2 hours at 25° C.; read-out: PDE4 IC50
How it was run: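 PDE4 was taken from the soluble liver fraction of male Balb/c mice (12 weeks), purified on DEAE sepharose with a sodium acetate gradient. Inhibition was measured as hydrolysis of 3H-cAMP. The reaction was followed by Sephadex-QAE treatment in HEPES-Na pH 7.0.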

Chain of PDE 7 (phosphodiesterase VII) (Q13946 whole entry): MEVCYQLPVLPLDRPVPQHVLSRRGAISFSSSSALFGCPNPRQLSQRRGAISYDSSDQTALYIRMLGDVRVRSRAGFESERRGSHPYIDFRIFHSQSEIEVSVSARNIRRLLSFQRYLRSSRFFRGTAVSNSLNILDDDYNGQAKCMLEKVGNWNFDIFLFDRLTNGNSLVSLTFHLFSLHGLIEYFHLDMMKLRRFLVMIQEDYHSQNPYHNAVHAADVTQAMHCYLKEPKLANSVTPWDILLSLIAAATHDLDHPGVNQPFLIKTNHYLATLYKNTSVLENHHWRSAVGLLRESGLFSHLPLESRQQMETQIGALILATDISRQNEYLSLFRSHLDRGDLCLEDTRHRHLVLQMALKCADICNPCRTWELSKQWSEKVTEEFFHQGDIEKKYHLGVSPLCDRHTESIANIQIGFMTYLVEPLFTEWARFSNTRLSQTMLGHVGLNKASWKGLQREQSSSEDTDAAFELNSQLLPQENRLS

Compound | IC50 [1] [nM] | IC50 [2] [nM]
Cc1nn(C2CCCCC2)c2sc(C(=O)N[C@H]3CC[C@H](NC(=O)N(C)CC(=O)OCc4ccccc4)CC3)cc12 [Example 275, Benzyl [{[(trans-4-{[(1 cyclohexyl-3-methyl-1H-thieno[2,3-c]pyrazol-5-yl)carbonyl]amino}cyclohexyl)amino]carbonyl}(methyl)amino]acetate] | 4 | 1200
Cc1nn(C2CCCCC2)c2sc(C(=O)N[C@H]3CC[C@H](CN4C(=O)CNC4=O)C3)cc12 [Example 258, 1-Cyclohexyl-N-{(1S,3S)-3-[(2,5-dioxo-1-imidazolidinyl)methyl]cyclopentyl}-3-methyl-1H-thieno[2,3-c]pyrazole-5-carboxamide] | 15 | 4700
Cc1nn(C2CCCCC2)c2sc(C(=O)Nc3ccc(C(=O)N4CCC(O)CC4)nc3)cc12 [Example 378, 1-Cyclohexyl-N-{6-[(4-hydroxy-1-piperidinyl)carbonyl]-3-pyridinyl}-3-methyl-1H-thieno[2,3-c]pyrazole-5-carboxamide] | 44 | 2500
Cc1nn(C2CCCCC2)c2sc(C(=O)N[C@H]3CC[C@H](C#N)CC3)cc12 [Example 209, N-(4-Cyanocyclohexyl)-1-cyclohexyl-3-methyl-1H-thieno[2,3-c]-pyrazole-5-carboxamide] | 77 | 7400
Cc1nn(C2CCOCC2)c2sc(C(=O)N[C@H]3CC[C@H](N4CCC(CO)CC4)CC3)cc12 [Example 423] | 72 | 8100
Cc1nn(C2CCCCC2)c2sc(C(=O)Nc3ccc4c(c3)CCN4S(C)(=O)=O)cc12 [Example 59, 1-Cyclohexyl-3-methyl-N-[1-(methylsulfonyl)-2,3-dihydro-1H-indol-5-yl]-1H-thieno[2,3-c]pyrazole-5-carboxamide] | 80 | 7000
CNC(=O)c1ccc(NC(=O)c2cc3c(C)nn(C4CCCCC4)c3s2)cn1 [Example 104, 1-Cyclohexyl-3-methyl-N-{6-[(methylamino)carbonyl]-3-pyridinyl}-1H-thieno[2,3-c]pyrazole-5-carboxamide] | 58 | 1500
Cc1nn(C2CCCCC2)c2sc(C(=O)Nc3ccc(C(=O)O)cc3)cc12 [Example 41, 4-{[(1-Cyclohexyl-methyl-1H-thieno[2,3-c]pyrazol-5-yl)carbonyl]-amino}benzoic acid] | 50 | 12000
Cc1nn(C2CCCCC2)c2sc(C(=O)N[C@H]3CC[C@H](CO)C3)cc12 [Example 257, 1-Cyclohexyl-N-[(1S,3S)-3-(hydroxymethyl)cyclopentyl]-3-methyl-1H-thieno[2,3-c]pyrazole-5-carboxamide] | 68 | 8300
Cc1nn(C2CCCCC2)c2sc(C(=O)Nc3ccc(C(=O)N4CCN(C)CC4)cc3)cc12 [Example 32, 1-Cyclohexyl-3-methyl-N-{4-[(4-methyl-1-piperazinyl)carbonyl]-phenyl}-1H-thieno[2,3-c]pyrazole-5-carboxamide] | 95 | 2500
Cc1nn(C2CCCCC2)c2sc(C(=O)N[C@H]3CC[C@H](N4C[C@@H](C)O[C@@H](C)C4)CC3)cc12 [Example 177, 1-Cyclohexyl-N-{trans-4-[(2R,6S)-2,6-dimethylmorpholinyl]-cyclohexyl}-3-methyl-1H-thieno[2,3-c]pyrazole-5-carboxamide] | 13 | 1600
Cc1nn(C2CCCCC2)c2sc(C(=O)Nc3ccc(N4CC[C@@H](O)C4)cc3)cc12 [Example 262, 1-Cyclohexyl-N-{4-[(3R)-3-hydroxypyrrolidinyl]phenyl}-3-methyl-1H-thieno[2,3-c]pyrazole-5-carboxamide] | 28 | 3800
Cc1nn(C2CCCCC2)c2sc(C(=O)Nc3ccc(N4CCC(O)CC4)c(C(=O)O)c3)cc12 [Example 375] | 7.2 | 930
Cc1nn(C2CCCCC2)c2sc(C(=O)Nc3ccc(CN4CCOCC4)cc3)cc12 [Example 199, 1-Cyclohexyl-3-methyl-N-[4-(4-morpholinylmethyl)phenyl]-1H-thieno[2,3-c]pyrazole-5-carboxamide fumarate] | 56 | 5800
Cc1nn(C2CCCCC2)c2sc(C(=O)N[C@H]3CC[C@H](N4CCCS4(=O)=O)CC3)cc12 [Example 274, 1-Cyclohexyl-N-[trans-(1,1-dioxide-2-isothiazolidinyl)cyclohexyl]-3-methyl-1H-thieno[2,3-c]pyrazole-5-carboxamide] | 9.9 | 1700
Cc1nn(C2CCCCC2)c2sc(C(=O)Nc3ccc4c(c3)CC(=O)N4)cc12 [Example 26, 1-Cyclohexyl-3-methyl-N-(2-oxo-2,3-dihydro-1H-indol-5-yl)-1H-thieno[2,3-c]pyrazole-5-carboxamide] | 44 | 3000

Compound | IC50 [1] [nM] | IC50 [2] [nM]
Cc1nn(C2CCOCC2)c2sc(C(=O)Nc3ccc(N4C(=O)CN(C)C4=O)cc3)cc12 [Example 260, 3-Methyl N-[4-(3-methyl-2,5-dioxo-1-imidazolidinyl)phenyl]-1-tetrahydro-2H-pyran-4-yl-1H-thieno[2,3-c]pyrazole-5-carboxamide] | 37 | 4500
Cc1nn(C2CCCCC2)c2sc(C(=O)Nc3ccc(C(=O)N4CCN(C)CC4)nc3)cc12 [Example 380, 1-Cyclohexyl-3-methyl N-{6-[(4-methyl-1-piperazinyl)carbonyl]-3-pyridinyl}-1H-thieno[2,3-c]pyrazole-5-carboxamide] | 56 | 1500
CNC1CCN(c2ccc(NC(=O)c3cc4c(C)nn(C5CCCCC5)c4s3)cc2F)CC1 [Example 163, 1-Cyclohexyl-N-{3-fluoro-4-[4-(methylamino)-1-piperidinyl]phenyl}-3-methyl-1H-thieno[2,3-c]pyrazole-5-carboxamide] | 14 | 900
Cc1nn(C2CCCCC2)c2sc(C(=O)N[C@H]3CC[C@H](C(=O)N4CCC(O)CC4)CC3)cc12 [Example 239, 1-Cyclohexyl-N-{4-[(4-hydroxy-1-piperidinyl)carbonyl]cyclohexyl}-3-methyl-1H-thieno[2,3-c]pyrazole-5-carboxamide] | 15 | 2600
CNS(=O)(=O)c1cccc(NC(=O)c2cc3c(C)nn(C4CCCCC4)c3s2)c1 [Example 111, 1-Cyclohexyl-3-methyl-N-{3-[(methylamino)sulfonyl]phenyl}-1H-thieno[2,3-c]pyrazole-5-carboxamide] | 10 | > 30000
CC(=O)Nc1ccc(NC(=O)c2cc3c(C)nn(C4CCCCCC4)c3s2)cc1 [Example 94, N-[4-(Acetylamino)phenyl]-1-cycloheptyl-3-methyl-1H-thieno[2,3-c]pyrazole-5-carboxamide] | 58 | > 30000
Cc1nn(C2CCCCC2)c2sc(C(=O)N[C@H]3C[C@@H]3CO)cc12 (racemic) [Example 340, (±)-1-Cyclohexyl-N-[trans-2-(hydroxymethyl)cyclopropyl]-3-methyl-1H-thieno[2,3-c]pyrazole-5-carboxamide] | 54 | 28000
Cc1nn(C2CCCCC2)c2sc(C(=O)N[C@H]3CC[C@H](N4CCCNCC4)CC3)cc12 [Example 170, 1-Cyclohexyl-N-[trans-4-(1,4-diazepam-1-yl)cyclohexyl]-3-methyl-1H-thieno[2,3-c]pyrazole-5-carboxamide] | 22 | 1300
Cc1nn(C2CCCCC2)c2sc(C(=O)Nc3ccc(C(=O)N(C)C)cc3)cc12 [Example 39, 1-Cyclohexyl-N-{4-[(dimethylamino)carbonyl]phenyl}-3-methyl-1H-thieno[2,3-c]pyrazole-5-carboxamide] | 14 | 3500
COC1CCN([C@H]2CC[C@H](NC(=O)c3cc4c(C)nn(C5CCCCC5)c4s3)CC2)CC1 [Example 168, 1-Cyclohexyl-N-[trans-4-(4-methoxyl-1-piperidinyl)cyclohexyl]-3-methyl-1H-thieno[2,3-c]pyrazole-5-carboxamide] | 22 | 1500
Cc1nn(C2CCOCC2)c2sc(C(=O)Nc3ccc(N4CCC(O)CC4)c(F)c3)cc12 [Example 268, N-[3-Fluoro-4-(4-hydroxy-piperidinyl)phenyl]-3-methyl-1-tetrahydro-2H-pyran-4-yl-1H-thieno[2,3-c]pyrazole-5-carboxamide] | 88 | 4800
CC(=O)N1CCN([C@H]2CC[C@H](NC(=O)c3cc4c(C)nn(C5CCCCC5)c4s3)CC2)CC1 [Example 190, N-[trans-4-(4-Acetyl-1-piperazinyl)cyclohexyl]-1-cyclohexyl-3-methyl-1H-thieno[2,3-c]pyrazole-5-carboxamide] | 3.5 | 1700
CC(=O)N1CCN([C@H]2CC[C@H](NC(=O)c3cc4c(C)nn(C5CCOCC5)c4s3)CC2)CC1 [Example 395, N-[trans-4-(4-Acetyl-1-piperazinyl)cyclohexyl]-3-methyl-1-tetrahydro-2H-pyran-4-yl-1H-thieno[2,3-c]pyrazole-5-carboxamide] | 19 | 1400
Cc1nn(C2CCCCC2)c2sc(C(=O)Nc3ccc(C(=O)N4CCCN(C)CC4)nc3)cc12 [Example 383] | 74 | 2400
CCN1CCN([C@H]2CC[C@H](NC(=O)c3cc4c(C)nn(C5CCOCC5)c4s3)CC2)CC1=O [Example 436, N-[trans-4-(4-Ethyl-3-oxo-1-piperazinyl)cyclohexyl]-3-methyl-1-tetrahydro-2H-pyran-4-yl-1H-thieno[2,3-c]pyrazole-5-carboxamide] | 30 | 7200
